# Laboratory results reported in patent US12281057B2 (VERTEX PHARMACEUTICALS INCORPORATED, priority 2017, dated 2025).
# Biological target: truncated form of human NaV 1.8 with full channel activity (Homo sapiens, UniProt Q9Y5Y9)
# Assay: E-VIPR Assay Method A for detecting and measuring Nav inhibition (HEK cells, membrane potential FRET dyes, electrical stimulation)
# Format: cell-based
# Details: HEK cells expressing human NaV 1.8, HS (human serum) in compound loading buffer, 11 point dose response, top dose 3 μM, Table 20A, read-out: Nav 1.8 MedChem Optical Assay EVIPR Assay Method A HS IC50
# Outline: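 HEK cells expressing truncated human NaV1.8, loaded with CC2-DMPE/DiSBAC6(3) FRET dyes, incubated 30 min at room temp with compound (0.625% DMSO), then electrically stimulated (1.25 A biphasic, 10 Hz, 10 s). Inhibition from 460/580 nm ratio Rf/Ri, normalised to positive and DMSO controls.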
# truncated form of human NaV 1.8 with full channel activity, sequence (Q9Y5Y9 126-1722 limits assumed): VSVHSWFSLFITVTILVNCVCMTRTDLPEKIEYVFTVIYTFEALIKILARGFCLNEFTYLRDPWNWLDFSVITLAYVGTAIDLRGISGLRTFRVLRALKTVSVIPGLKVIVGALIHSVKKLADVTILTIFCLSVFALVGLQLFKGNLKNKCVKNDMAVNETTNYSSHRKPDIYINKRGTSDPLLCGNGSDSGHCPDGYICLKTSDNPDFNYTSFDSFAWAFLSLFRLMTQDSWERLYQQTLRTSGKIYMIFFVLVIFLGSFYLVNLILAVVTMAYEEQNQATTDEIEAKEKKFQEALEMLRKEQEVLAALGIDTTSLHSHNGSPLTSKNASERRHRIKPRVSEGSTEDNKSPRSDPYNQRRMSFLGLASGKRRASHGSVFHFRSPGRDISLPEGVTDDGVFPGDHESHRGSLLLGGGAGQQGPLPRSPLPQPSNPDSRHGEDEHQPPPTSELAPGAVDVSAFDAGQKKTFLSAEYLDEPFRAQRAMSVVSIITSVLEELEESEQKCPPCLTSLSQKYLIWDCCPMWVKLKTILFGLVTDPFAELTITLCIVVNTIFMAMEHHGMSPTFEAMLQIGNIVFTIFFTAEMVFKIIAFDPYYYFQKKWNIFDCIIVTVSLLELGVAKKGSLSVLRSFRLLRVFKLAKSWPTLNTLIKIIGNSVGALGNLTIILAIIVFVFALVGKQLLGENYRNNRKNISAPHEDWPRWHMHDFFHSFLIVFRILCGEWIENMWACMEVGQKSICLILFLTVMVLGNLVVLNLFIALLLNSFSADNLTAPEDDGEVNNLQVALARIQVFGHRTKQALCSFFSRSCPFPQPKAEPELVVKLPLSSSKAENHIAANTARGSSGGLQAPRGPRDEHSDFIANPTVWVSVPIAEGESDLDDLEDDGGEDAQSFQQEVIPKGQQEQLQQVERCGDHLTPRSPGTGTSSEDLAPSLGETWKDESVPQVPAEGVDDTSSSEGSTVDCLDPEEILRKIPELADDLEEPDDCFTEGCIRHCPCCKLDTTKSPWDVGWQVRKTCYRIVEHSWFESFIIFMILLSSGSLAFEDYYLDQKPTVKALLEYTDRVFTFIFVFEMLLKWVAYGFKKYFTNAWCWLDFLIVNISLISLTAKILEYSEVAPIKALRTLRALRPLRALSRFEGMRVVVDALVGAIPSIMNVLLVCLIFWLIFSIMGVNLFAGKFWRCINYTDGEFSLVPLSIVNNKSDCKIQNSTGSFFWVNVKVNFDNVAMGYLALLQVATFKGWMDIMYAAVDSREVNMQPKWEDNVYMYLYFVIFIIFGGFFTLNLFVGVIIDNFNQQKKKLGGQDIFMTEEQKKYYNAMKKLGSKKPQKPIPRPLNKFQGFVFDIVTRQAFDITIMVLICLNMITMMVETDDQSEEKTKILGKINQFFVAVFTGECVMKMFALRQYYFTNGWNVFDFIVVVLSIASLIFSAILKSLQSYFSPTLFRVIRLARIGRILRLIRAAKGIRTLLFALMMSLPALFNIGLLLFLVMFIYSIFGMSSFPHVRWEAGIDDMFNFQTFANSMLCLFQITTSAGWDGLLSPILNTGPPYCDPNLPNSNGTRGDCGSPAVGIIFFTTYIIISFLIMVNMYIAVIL
row,SMILES,IC50
1,"COc1cc(OC(F)(F)F)ccc1Oc1cc(C2(C)CC2)ncc1C(=O)Nc1ccc(F)c(C(N)=O)c1 [Compound 102, N-(3-Carbamoyl-4-fluoro-phenyl)-4-[2-methoxy-4-(trifluoromethoxy)phenoxy]-6-(1-methylcyclopropyl)pyridine-3-carboxamide]",22 nM
2,"NC(=O)c1cc(NC(=O)c2c(Oc3ccc(OC(F)(F)F)cc3)ccc(C(F)F)c2F)ccn1 [Compound 83, 4-[[3-(Difluoromethyl)-2-fluoro-6-[4-(trifluoromethoxy)phenoxy]benzoyl]amino]pyridine-2-carboxamide]",48 nM
3,"NC(=O)c1cc(NC(=O)c2c(Oc3ccc(OC(F)(F)F)cc3)ccc(F)c2F)ccn1 [Compound 64, 4-[[2,3-Difluoro-6-[4-(trifluoromethoxy)phenoxy]benzoyl]amino]pyridine-2-carboxamide]",185 nM
4,"NC(=O)c1cc(NC(=O)c2cc(C(F)(F)C(F)(F)F)ccc2Oc2ccc(OC(F)(F)F)cc2)ccn1 [Compound 80, 4-[[5-(1,1,2,2,2-pentafluoroethyl)-2-[4-(trifluoromethoxy)phenoxy]benzoyl]amino]pyridine-2-carboxamide]",127 nM
5,"COc1cc(OC(F)(F)F)ccc1Oc1cc([C@H]2C[C@@H]2C)ncc1C(=O)Nc1ccnc(C(N)=O)c1 (single isomer, unassigned) [Compound 111]",200 nM
6,"[2H]C([2H])([2H])Oc1cc(OC(F)(F)F)ccc1Oc1cc(C2CC2)ncc1C(=O)Nc1ccc(F)c(C(N)=O)c1 [Compound 88, N-(3-Carbamoyl-4-fluoro-phenyl)-6-cyclopropyl-4-[2-(trideuteriomethoxy)-4-(trifluoromethoxy)phenoxy]pyridine-3-carboxamide]",49 nM
7,"NC(=O)c1cc(NC(=O)c2c(Oc3ccc(OC(F)(F)F)nc3)ccc(C(F)(F)F)c2F)ccc1F [Compound 69, N-(3-carbamoyl-4-fluoro-phenyl)-2-fluoro-6-[[6-(trifluoromethoxy)-3-pyridyl]oxy]-3-(trifluoromethyl)benzamide]",56 nM
8,"NC(=O)c1cc(NC(=O)c2c(Oc3ccc(OC(F)(F)F)cc3)ccc(C(F)F)c2F)ccc1F [Compound 74, N-(3-Carbamoyl-4-fluoro-phenyl)-3-(difluoromethyl)-2-fluoro-6-[4-(trifluoromethoxy)phenoxy]benzamide]",22 nM
9,"COc1cc(OC(F)(F)F)ccc1Oc1cc(C2(C)CC2)ncc1C(=O)Nc1ccnc(C(N)=O)c1 [Compound 105, N-(2-Carbamoyl-4-pyridyl)-4-[2-methoxy-4-(trifluoromethoxy)phenoxy]-6-(1-methylcyclopropyl)pyridine-3-carboxamide]",44 nM
10,"COc1cc(OC(F)(F)F)ccc1Oc1cc(C2C[C@@H]2C)ncc1C(=O)Nc1ccnc(C(N)=O)c1 (mixture of isomers) [Compound 109, Racemic trans-4-(4-(2-Methoxy-4-(trifluoromethoxy)phenoxy)-6-(2-methylcyclopropyl)nicotinamido)picolinamide]",65 nM
11,"Cc1cc(F)ccc1Oc1cccc(C(F)(F)F)c1C(=O)Nc1ccc(F)c(C(N)=O)c1 [Compound 41, N-(3-Carbamoyl-4-fluoro-phenyl)-2-(4-fluoro-2-methyl-phenoxy)-6-(trifluoromethyl)benzamide]",560 nM
12,"COc1cc(OC(F)(F)F)ccc1Oc1cc(C(F)(F)F)ncc1C(=O)Nc1ccnc(C(N)=O)c1 [Compound 34, N-(2-Carbamoyl-4-pyridyl)-4-[2-methoxy-4-(trifluoromethoxy)phenoxy]-6-(trifluoromethyl)pyridine-3-carboxamide]",83 nM
13,"NC(=O)c1cc(NC(=O)c2c(Oc3ccc(OC(F)(F)F)c(F)c3)ccc(C(F)(F)F)c2F)ccn1 [Compound 57, 4-[[2-fluoro-6-[3-fluoro-4-(trifluoromethoxy)phenoxy]-3-(trifluoromethyl)benzoyl]amino]pyridine-2-carboxamide]",17 nM

# The remaining lines, values ahead:
row,IC50,SMILES
1,13 nM,"NC(=O)c1cc(NC(=O)c2c(Oc3ccc(F)cc3OC(F)F)ccc(C(F)(F)F)c2F)ccn1 [Compound 208, 4-[[6-[2-(Difluoromethoxy)-4-fluoro-phenoxy]-2-fluoro-3-(trifluoromethyl)benzoyl]amino]pyridine-2-carboxamide]"
2,1700 nM,"COc1cc(F)ccc1Oc1cc(C(F)(F)F)cc(C(F)(F)F)c1C(=O)Nc1ccc(C(N)=O)nc1 [Compound 159, 5-[[2-(4-Fluoro-2-methoxy-phenoxy)-4,6-bis(trifluoromethyl)benzoyl]amino]pyridine-2-carboxamide]"
3,11 nM,"COc1ccc(Oc2ccc(C(F)(F)F)c(F)c2C(=O)Nc2ccnc(C(N)=O)c2)c(OC)c1 [Compound 195, 4-[[6-(2,4-Dimethoxyphenoxy)-2-fluoro-3-(trifluoromethyl)benzoyl]amino]pyridine-2-carboxamide]"
4,43 nM,"COc1cc(OC(F)(F)F)ccc1Oc1cc([C@@H]2C[C@H]2C)ncc1C(=O)Nc1ccnc(C(N)=O)c1 (single isomer, unassigned) [Compound 112]"
5,6 nM,"COc1cc(OC(F)(F)F)ccc1Oc1ccc(Cl)c(F)c1C(=O)Nc1cc(C(N)=O)ncc1C [Compound 189, 4-[[3-Chloro-2-fluoro-6-[2-methoxy-4-(trifluoromethoxy)phenoxy]benzoyl]amino]-5-methyl-pyridine-2-carboxamide]"
6,170 nM,"COc1cc(F)ccc1-c1cc(C(F)(F)F)ccc1C(=O)Nc1ccc(F)c(C(N)=O)c1 [Compound 162, N-(3-carbamoyl-4-fluoro-phenyl)-2-(4-fluoro-2-methoxy-phenyl)-4-(trifluoromethyl)benzamide]"
7,310 nM,"NC(=O)c1cc(NC(=O)c2c(Oc3ccc(OC(F)(F)F)cc3O)ccc(C(F)(F)F)c2F)ccc1F [Compound 142, N-(3-Carbamoyl-4-fluoro-phenyl)-2-fluoro-6-[2-hydroxy-4-(trifluoromethoxy)phenoxy]-3-(trifluoromethyl)benzamide]"
8,24 nM,"NC(=O)c1cc(NC(=O)c2c(Oc3ccc(OC(F)(F)F)cc3)ccc(OC(F)(F)F)c2F)ccn1 [Compound 243, 4-[[2-fluoro-3-(trifluoromethoxy)-6-[4-(trifluoromethoxy)phenoxy]benzoyl]amino]pyridine-2-carboxamide]"
9,52 nM,"[2H]C([2H])([2H])Oc1cc(OC(F)(F)F)ccc1Oc1cc(OC(F)(F)F)cc(F)c1C(=O)Nc1ccc(C(N)=O)nc1 [Compound 173, 5-[[2-Fluoro-6-[2-(trideuteriomethoxy)-4-(trifluoromethoxy)phenoxy]-4-(trifluoromethoxy)benzoyl]amino]pyridine-2-carboxamide]"
10,1 nM,"COc1cc(OC(F)(F)F)ccc1Oc1cc(Cl)c(C)c(F)c1C(=O)Nc1ccnc(C(N)=O)c1 [Compound 201, 4-[[4-Chloro-2-fluoro-6-[2-methoxy-4-(trifluoromethoxy)phenoxy]-3-methyl-benzoyl]amino]pyridine-2-carboxamide]"
11,2100 nM,"NC(=O)c1ccc(NC(=O)c2c(Cl)cc(Cl)cc2Oc2ccc(F)cc2)cn1 [Compound 181, 5-[[2,4-Dichloro-6-(4-fluorophenoxy)benzoyl]amino]pyridine-2-carboxamide]"
12,47 nM,"COc1cc(Oc2ccc(C(F)(F)F)c(F)c2C(=O)Nc2ccc(F)c(C(N)=O)c2)ccc1OC(F)(F)F [Compound 126, N-(3-Carbamoyl-4-fluoro-phenyl)-2-fluoro-6-[3-methoxy-4-(trifluoromethoxy)phenoxy]-3-(trifluoromethyl)benzamide]"
13,50 nM,"[2H]C([2H])([2H])Oc1cc(OC(F)(F)F)ccc1Oc1ccc(C(F)(F)F)c(F)c1C(=O)Nc1ccc(C(=O)NC)nc1 [Compound 209, 5-[[2-fluoro-6-[2-(trideuteriomethoxy)-4-(trifluoromethoxy)phenoxy]-3-(trifluoromethyl)benzoyl]amino]-N-methyl-pyridine-2-carboxamide]"
14,190 nM,"[2H]C([2H])([2H])Oc1cc(OC(F)(F)F)ccc1Oc1cc(C(F)(F)F)cc(C(F)(F)F)c1C(=O)Nc1ccc(C(N)=O)nc1 [Compound 176, 5-[[2-[2-(Trideuteriomethoxy)-4-(trifluoromethoxy)phenoxy]-4,6-bis(trifluoromethyl)benzoyl]amino]pyridine-2-carboxamide]"
15,1600 nM,"COc1cc(OC(F)(F)F)ccc1Oc1cncc(F)c1C(=O)Nc1ccc(F)c(C(N)=O)n1 [Compound 164, 3-Fluoro-6-[[3-fluoro-5-[2-methoxy-4-(trifluoromethoxy)phenoxy]pyridine-4-carbonyl]amino]pyridine-2-carboxamide]"
16,4 nM,"[2H]C([2H])([2H])Oc1cc(OC(F)(F)F)ccc1Oc1ccc(C(F)(F)F)c(F)c1C(=O)Nc1ccc(C(N)=O)cc1 [Compound 127, N-(4-carbamoylphenyl)-2-fluoro-6-[2-(trideuteriomethoxy)-4-(trifluoromethoxy)phenoxy]-3-(trifluoromethyl)benzamide]"
17,9 nM,"[2H]c1cc(F)c(C(N)=O)cc1NC(=O)c1c(Oc2c([2H])cc(OC(F)(F)F)c([2H])c2[2H])ccc(C(F)(F)F)c1F [Compound 213, N-(5-Carbamoyl-2-deuterio-4-fluoro-phenyl)-2-fluoro-6-[2,3,6-trideuterio-4-(trifluoromethoxy)phenoxy]-3-(trifluoromethyl)benzamide]"
18,5 nM,"COc1cc(OC(F)(F)F)ccc1Oc1ccc(C(F)(F)F)c(F)c1C(=O)Nc1cc(C(N)=O)ncc1C [Compound 120, 4-[[2-Fluoro-6-[2-methoxy-4-(trifluoromethoxy)phenoxy]-3-(trifluoromethyl)benzoyl]amino]-5-methyl-pyridine-2-carboxamide]"
19,410 nM,"COc1cc(F)ccc1Oc1cc(Cl)cc(Cl)c1C(=O)Nc1ccc(C(N)=O)nc1 [Compound 182, 5-[[2,4-Dichloro-6-(4-fluoro-2-methoxy-phenoxy)benzoyl]amino]pyridine-2-carboxamide]"
